Source: paper PMC8621101, “Inhibition of XPO-1 Mediated Nuclear Export through the Michael-Acceptor Character of Chalcones” (Pharmaceuticals, 2021)
Values joined by “and” are separate entries in the source; they are usually repeats but may differ in a detail not shown here. Identical values can stand only once.

Columns and labels:
[1] = tested on: NCI-H460 cells; assay: Cell proliferation assay (IncuCyte confluence), NCI-H460; assay type: cell-based; conditions: Homo sapiens; NCI-H460 lung carcinoma; 72 h; mean of two independent experiments ± SEM; read-out: IC50 antiproliferative activity NCI-H460
Experimental: (§1) Cancer cell lines HCT-116, NCI-H460, HL-60, K-562 and Z-138 were acquired from the American Type Culture Collection (ATCC, Manassas, VA, USA). The DND-41 cell line was purchased from the Deutsche Sammlung von Mikroorganismen und Zellkulturen (DSMZ Leibniz-Institut, Brunswick, Germany), and the HAP-1 cell line was ordered from Horizon Discovery (Horizon Discovery Group, Water Beach, UK). All cell lines were cultured as recommended by the suppliers. Culture media were purchased from Gibco Life Technologies and supplemented with 10% fetal bovine serum (HyClone, GE Healthcare Life Sciences, Chicago, Illinois, USA).
(§2) Adherent cell lines HCT-116, NCI-H460 and Hap-1 cells were seeded at a density between 500 and 1500 cells per well in 384-well tissue culture plates (Greiner). After overnight incubation, cells were treated with different concentrations of the test compounds. Suspension cell lines HL-60, K-562, Z-138 and DND-41 were seeded at densities ranging from 2500 to 5500 cells per well in 384-well culture plates containing the test compounds at the same concentration points.

[2] = tested on: Hap-1 cells; assay: Cell proliferation assay (IncuCyte confluence), Hap-1; assay type: cell-based; conditions: Homo sapiens, HAP1; Hap-1 chronic myeloid leukemia; 72 h; mean of two independent experiments ± SEM; read-out: IC50 antiproliferative activity Hap-1
Experimental: as §1, §2

[3] = tested on: K-562 cells; assay: Cell proliferation assay (IncuCyte confluence), K-562; assay type: cell-based; conditions: Homo sapiens, K562; K-562 chronic myeloid leukemia; 72 h; mean of two independent experiments ± SEM; read-out: IC50 antiproliferative activity K-562
Experimental: as §1, §2

[4] = tested on: HL-60 cells; assay: Cell proliferation assay (IncuCyte confluence), HL-60; assay type: cell-based; conditions: Homo sapiens; HL-60 acute myeloid leukemia; 72 h; mean of two independent experiments ± SEM; read-out: IC50 antiproliferative activity HL-60
Experimental: as §1, §2

[5] = tested on: panel of cancer cell lines; assay: Antiproliferative activity, panel of cancer cell lines; assay type: cell-based; conditions: for Fold less potent than KPT-330 (antiproliferative IC50): all cell lines tested; for Antiproliferative activity, in words: panel of cancer cell lines
Experimental: as §2

[6] = tested on: DND-41 cells; assay: Cell proliferation assay (IncuCyte confluence), DND-41; assay type: cell-based; conditions: DND41; DND-41 acute lymphoblastic leukemia; 72 h; mean of two independent experiments ± SEM; read-out: IC50 antiproliferative activity DND-41
Experimental: as §1, §2

[7] = biological target: T1, XPO1 (Homo sapiens, UniProt O14980); assay: XPO1 phenotypic reporter assay in HeLa NLSSV40-AcGFP-NESPKI cells; assay type: cell-based; conditions: HeLa GFP reporter cell line; 2 h treatment; mean ± SEM of two independent experiments; read-out: XPO1 inhibition IC50
T1 construct: the compounds were assayed in a reporter cell line based on the subcellular localization of a XPO1-dependent GFP reporter cargo protein; endogenous in cells; host or cells: HeLa cells stably transfected with the NLSSV40-AcGFP-NESPKI reporter (only the reporter cargo is transfected, not XPO1)
T1 sequence (O14980 whole entry): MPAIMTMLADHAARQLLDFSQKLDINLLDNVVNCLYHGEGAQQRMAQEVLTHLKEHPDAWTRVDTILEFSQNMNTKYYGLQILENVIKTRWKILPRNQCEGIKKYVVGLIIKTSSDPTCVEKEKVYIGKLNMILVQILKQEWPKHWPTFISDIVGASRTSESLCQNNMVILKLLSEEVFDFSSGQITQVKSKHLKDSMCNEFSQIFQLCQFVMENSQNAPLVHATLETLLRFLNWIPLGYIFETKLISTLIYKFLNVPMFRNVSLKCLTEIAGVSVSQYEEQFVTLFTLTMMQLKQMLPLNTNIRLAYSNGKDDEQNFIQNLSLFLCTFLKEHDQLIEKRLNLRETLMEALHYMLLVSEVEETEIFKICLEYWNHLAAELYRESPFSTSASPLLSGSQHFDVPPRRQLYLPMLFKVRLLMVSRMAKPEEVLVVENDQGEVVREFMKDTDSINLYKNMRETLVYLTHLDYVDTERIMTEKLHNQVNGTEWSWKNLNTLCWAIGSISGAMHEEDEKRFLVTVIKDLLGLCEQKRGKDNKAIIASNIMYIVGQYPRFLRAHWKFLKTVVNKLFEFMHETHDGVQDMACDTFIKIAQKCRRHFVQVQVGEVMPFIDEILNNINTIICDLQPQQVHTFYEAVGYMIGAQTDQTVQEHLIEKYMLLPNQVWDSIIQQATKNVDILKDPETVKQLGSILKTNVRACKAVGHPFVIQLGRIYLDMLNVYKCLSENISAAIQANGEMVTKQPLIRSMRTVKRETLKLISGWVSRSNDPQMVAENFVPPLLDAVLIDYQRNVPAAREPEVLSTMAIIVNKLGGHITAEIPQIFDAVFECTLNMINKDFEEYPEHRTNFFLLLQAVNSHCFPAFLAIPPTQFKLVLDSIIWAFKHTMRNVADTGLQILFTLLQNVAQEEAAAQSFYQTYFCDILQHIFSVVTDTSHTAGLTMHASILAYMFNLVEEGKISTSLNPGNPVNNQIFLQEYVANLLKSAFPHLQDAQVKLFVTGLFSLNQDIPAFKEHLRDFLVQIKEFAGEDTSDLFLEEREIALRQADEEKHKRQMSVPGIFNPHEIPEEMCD
Experimental: Stably transfected HeLa NLSSV40-AcGFP-NESPKI were cultured as described in Vercruysse et al.
To study the XPO1-mediated nuclear export, stably transfected HeLa NLSSV40-AcGFP-NESPKI reporter cells were seeded at 8000 cells per well in 96-well all clear tissue culture plates (TPP). After overnight incubation, cells were treated with different doses of compound or solvent (DMSO) for 2 h and then fixed and counterstained with DAPI. Fluorescence was read on an ArrayScan XTI High Content Reader (Thermo Fisher Scientific, Waltham, MA, USA). Nuclear and cytoplasmic compartments were segmented and their average pixel intensities in the green channel were quantitated employing the HCS Studio software. Genedata Screener software was used for dose-response curve fitting, and calculation of EC50 values was based on the percentage of cells having a predominant nuclear localisation (ratio of nuclear to cytoplasmic signal equal or above 1.4) of the reporter construct. Compounds were tested in two independent experiments and represented as mean ± SEM.

[8] = GSH reactivity assay (HPLC, DTNB quench); assay type: physicochemical; conditions: 500 µM compound, 5 mM GSH, 37 °C; for Reaction with GSH (hetero-Michael addition), qualitative: PBS pH 7.4 with EDTA:DMSO 1:1; for Reversibility of GSH adducts (retro-Michael), qualitative: longer incubation
Experimental: In order to determine if these chalcones could react with thiol groups through a hetero-Michael addition reaction, a few selected compounds (9, 10, 13 and 18) were incubated with glutathione (GSH). After different incubation times, the reactions were quenched by adding 5,5′-dithiobis(2-nitrobenzoic acid) (DTNB, Ellman´s reagent) (1:1 ratio with respect to the initial concentration of GSH). The course of the reaction was followed by HPLC, adapting reported procedures. […] Thus, although this assay is only qualitative, the tendency observed among these chalcones nicely fits the reactivity described for α-X-2´3,4,4´-tetramethylchalcones.
A 500 µM sample of the tested compound was incubated with 5 mM reduced L-glutathione for 24 h at 37 °C with a final volume of 200 μL. As a solvent system, 20 mM PBS buffer pH 7.4 with 2 mM EDTA:DMSO (1:1) was used. To perform the assay, stock solutions of 20 mM of the chalcones (9, 10, 13 and 18) and 15 mM of reduced L-glutathione were freshly prepared for every experiment and then diluted properly to give the final electrophile:nucleophile ratio (1:10). A 5 mM solution of 5,5′-dithiobis(2-nitrobenzoic acid) (DTNB) was prepared in the same solvent system to quench the reaction. After different time points (10 min, 1 h, 4 h and 24 h), an aliquot of 20 μL of the incubation mixture was quenched by adding 20 μL of the DTNB stock solution, mixed thoroughly, and then analyzed by HPLC. HPLC analysis was performed in Agilent 1120 compact LC, column ACE 5 C18-300 (15 cm × 4.6 mm); UV detection was performed at λ = 254 nm. Solvents used were acetonitrile for bottle A and H2O (containing 0.05% TFA) for bottle B, and the flow rate was 1mL/min. The gradients used were: (A) incubations with chalcone 9: from 10% to 80% of solvent A in 10 min; (B) incubations with chalcones 10 and 18: from 10% to 100% of solvent A in 10 min. The new peaks were analysed by LC-MS. As controls, a 500 μM solution of the α,β-unsaturated compound was also analysed, and a 5 mM reduced L-glutathione solution was quenched by adding DNTB at the same time points. In general, after 6 h of incubation, no GSH was detected.

Structure (SMILES) | melting point [°C] | IC50 [1] [nM] | IC50 [2] [nM] | IC50 [3] [nM] | IC50 [4] [nM] | Fold less potent than KPT-330 (antiproliferative IC50) [5] | Antiproliferative activity, in words [5] | IC50 [6] [nM] | IC50 [7] | Reaction with GSH (hetero-Michael addition), qualitative [8] | Reversibility of GSH adducts (retro-Michael), qualitative [8]
O=C(/C=C/c1cncnc1)c1ccc2ccccc2c1 [Compound 9, (E)-1-(Naphthalen-2-yl)-3-(pyrimidin-5-yl)prop-2-en-1-one] | 175 to 177 | 2100 ± 100 | 2300 ± 200 | 1800 ± 80 | 2000 ± 500 | 5- to 30 fold | single digit µM IC50 values | 2100 ± 500 | 2500 nM and 2460 nM | quickly reacted with GSH | underwent a retro-Michael addition reaction
COc1cc(OC)cc(C(=O)/C=C/c2cncnc2)c1 [Compound 10, (E)-1-(3′,5′-Dimethoxyphenyl)-3-(pyrimidin-5′’-yl)prop-2-en-1-one] | 184 to 185 | 3500 ± 1500 | 2100 ± 200 | 7200 ± 1900 | 2200 ± 300 | 5- to 30 fold | single digit µM IC50 values | 1500 ± 200 | 550 ± 190 nM | quickly reacted with GSH | underwent a retro-Michael addition reaction
